Measurements reported in publication PMC10348020, “Carbonic anhydrase inhibitory activity of phthalimide-capped benzene sulphonamide derivatives” (Journal of Enzyme Inhibition and Medicinal Chemistry, 2023).
Entries after “also recorded” stand apart in the source; their conditions may differ.

Key:
hCA I = target: T1, hCA I (Homo sapiens, UniProt P00915); test: stopped-flow CO2 hydrase assay, hCA I; type: biochemical; conditions: for Ki: stopped-flow CO2 hydrase assay, mean from three different assays, errors ± 5–10%; for hCA I inhibition (in words): stopped-flow assay
T1 construct: hCA isoenzymes I and II used in these experiments were obtained, as earlier reported by our groups
T1 sequence (P00915 whole entry): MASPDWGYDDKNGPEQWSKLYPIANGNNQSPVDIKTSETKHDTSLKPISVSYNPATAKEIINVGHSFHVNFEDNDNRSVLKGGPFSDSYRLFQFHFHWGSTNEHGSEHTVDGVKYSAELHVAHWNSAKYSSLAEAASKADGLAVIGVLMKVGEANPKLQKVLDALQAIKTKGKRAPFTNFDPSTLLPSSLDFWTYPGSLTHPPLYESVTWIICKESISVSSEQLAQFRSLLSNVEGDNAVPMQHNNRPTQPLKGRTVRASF
Method: (§1) The CA isoenzyme assay was performed using a stopped-flow Applied Photophysics (SX.18V-R; Oxford, UK) instrument using Khalifah’s technique. hCA isoenzymes I and II used in these experiments were obtained, as earlier reported by our groups.

hCA II = target: T2, hCA II (Homo sapiens, UniProt P00918); test: stopped-flow CO2 hydrase assay, hCA II; type: biochemical; conditions: for Ki: stopped-flow CO2 hydrase assay, mean from three different assays, errors ± 5–10%; for hCA II inhibition (in words): stopped-flow assay
T2 construct: hCA isoenzymes I and II used in these experiments were obtained, as earlier reported by our groups
Method: as §1

dengue viral protease = system: dengue viral protease; design: method as in PMID 26247308; conditions: previously reported by the group; cited from earlier work

Row | SMILES | Ki (hCA I) [µM] | Ki (hCA II) [µM] | hCA I inhibition (in words) (hCA I) | hCA II inhibition (in words) (hCA II) | dengue viral protease inhibition (in words) (dengue viral protease)
1 | O=C1c2ccccc2C(=O)N1c1ccc(S(=O)(=O)Nc2ccccc2)cc1 [Compound 9] | > 10 | > 10 | – | – | –
2 | O=C1c2ccccc2C(=O)N1c1ccc(S(=O)(=O)N2CCCCC2)cc1 [Compound 7] | > 10 | > 10 | – | – | –
3 | O=C1c2ccccc2C(=O)N1c1ccc(S(=O)(=O)Nc2cccc([N+](=O)[O-])c2)cc1 [Compound 20] | > 10 | > 10 | – | – | –
4 | O=C1c2ccccc2C(=O)N1c1ccc(S(=O)(=O)NCCc2ccccc2)cc1 [Compound 3] | 7.35 | – | showed hCA I inhibition; also recorded: inhibited hCA I | – | –
5 | O=C1c2ccccc2C(=O)N1c1ccc(S(=O)(=O)Nc2ccccc2O)cc1 [Compound 10] | 5.52 | 8.87 | showed hCA I inhibition; also recorded: inhibited hCA I | showed hCA II inhibition at nanomolar concentrations; also recorded: inhibited hCA II | –
6 | O=C(O)c1ccc(NS(=O)(=O)c2ccc(N3C(=O)c4ccccc4C3=O)cc2)cc1 [Compound 22] | > 10 | > 10 | – | – | –
7 | Cc1cccc(NS(=O)(=O)c2ccc(N3C(=O)c4ccccc4C3=O)cc2)c1 [Compound 17] | > 10 | > 10 | – | – | –
8 | CN(C)S(=O)(=O)c1ccc(N2C(=O)c3ccccc3C2=O)cc1 [Compound 4] | > 10 | 9.06 | – | showed hCA II inhibition at nanomolar concentrations; also recorded: inhibited hCA II | –
9 | O=C1c2ccccc2C(=O)N1c1ccc(S(=O)(=O)Nc2ccc(Cl)cc2)cc1 [Compound 15] | 7.5 | > 10 | showed hCA I inhibition; also recorded: inhibited hCA I | – | –
10 | O=C1c2ccccc2C(=O)N1c1ccc(S(=O)(=O)Nc2ccc([N+](=O)[O-])cc2)cc1 [Compound 21] | > 10 | > 10 | – | – | –
11 | NS(=O)(=O)c1ccc(N2C(=O)c3ccccc3C2=O)cc1 [Compound 1] | – | – | – | – | inactive
12 | COc1ccc(NS(=O)(=O)c2ccc(N3C(=O)c4ccccc4C3=O)cc2)cc1 [Compound 12] | > 10 | > 10 | – | – | –
13 | CCc1ccc(NS(=O)(=O)c2ccc(N3C(=O)c4ccccc4C3=O)cc2)cc1 [Compound 19] | > 10 | > 10 | inactive | inactive | potent dengue protease inhibitor
14 | CCN(CC)S(=O)(=O)c1ccc(N2C(=O)c3ccccc3C2=O)cc1 [Compound 5] | > 10 | > 10 | – | – | –
15 | Cc1ccc(NS(=O)(=O)c2ccc(N3C(=O)c4ccccc4C3=O)cc2)cc1 [Compound 18] | > 10 | > 10 | – | – | –
16 | Cc1ccccc1NS(=O)(=O)c1ccc(N2C(=O)c3ccccc3C2=O)cc1 [Compound 16] | > 10 | > 10 | – | – | –
17 | O=C1c2ccccc2C(=O)N1c1ccc(S(=O)(=O)Nc2ccccc2Cl)cc1 [Compound 13] | > 10 | > 10 | – | – | –
18 | CN1CCN(S(=O)(=O)c2ccc(N3C(=O)c4ccccc4C3=O)cc2)CC1 [Compound 8] | > 10 | > 10 | – | – | –
19 | O=C1c2ccccc2C(=O)N1c1ccc(S(=O)(=O)Nc2cccc(Cl)c2)cc1 [Compound 14] | > 10 | > 10 | – | – | –
20 | O=C1c2ccccc2C(=O)N1c1ccc(S(=O)(=O)N(c2ccccc2)c2ccccc2)cc1 [Compound 6] | > 10 | > 10 | – | – | –
21 | CC(C)NS(=O)(=O)c1ccc(N2C(=O)c3ccccc3C2=O)cc1 [Compound 2] | > 10 | > 10 | – | – | –
22 | COc1cccc(NS(=O)(=O)c2ccc(N3C(=O)c4ccccc4C3=O)cc2)c1 [Compound 11] | > 10 | > 10 | – | – | –
